We go through one substance from US8883130B2, “Transparent antiperspirant gels” (Henkel AG & Co. KGaA, priority 2008, dated 2014).

The data set in a line: Emulsion stability with silicone-free water-in-oil emulsifiers. In kind it is physicochemical.

Consider Laureth-2, for which the “stability of the emulsion” value is given as “did not yield stable emulsions”.
